Legend:
Format in all cases: biochemical
[1] = biological target: T1, Sirt3 (Homo sapiens, UniProt Q9NTG7); experiment: Fluorimeter delipoylation assay of probe KTlip with Sirt3; conditions: Sirt3, 37° C., HEPES buffer pH 8.0
T1 construct: made in house
T1 sequence (Q9NTG7 1-399): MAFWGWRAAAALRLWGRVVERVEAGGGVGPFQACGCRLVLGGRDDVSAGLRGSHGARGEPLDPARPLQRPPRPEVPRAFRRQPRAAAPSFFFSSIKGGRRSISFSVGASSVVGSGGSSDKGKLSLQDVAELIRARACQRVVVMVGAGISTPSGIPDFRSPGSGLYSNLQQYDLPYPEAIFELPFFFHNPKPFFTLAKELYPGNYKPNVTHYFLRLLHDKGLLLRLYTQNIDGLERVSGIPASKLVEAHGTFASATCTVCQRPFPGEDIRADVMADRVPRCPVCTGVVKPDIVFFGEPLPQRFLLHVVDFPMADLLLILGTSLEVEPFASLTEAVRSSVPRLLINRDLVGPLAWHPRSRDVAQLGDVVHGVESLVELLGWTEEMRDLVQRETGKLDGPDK
Method: (§1) The capacity of HDACs to recognize and remove the lipoyl group of KTlip was examined by a fluorimeter assay. KTlip was incubated with various HDACs at 37° C. in HEPES buffer (pH 8.0). The fluorescence of the enzymatic reactions was then measured accordingly. […] Further HPLC and MS analysis confirmed that the molecular weight of the newly generated peak corresponded to the expected tandem de-lipoylated/exchanged product. […] After enzymatic reaction with Sirt2, a shift of peak absorption from 380 nm to 480 nm was clearly observed. Through detailed kinetic study, the first-order rate constant of the reaction was determined to be 0.013 min-1. The Km value of KTlip obtained from the fluorescent method matched well with that from the traditional HPLC method, underscoring that probe KTlip can serve as a useful tool for detecting enzymatic delipoylation activity.
(§2) The probe KTlip was incubated with sirtuin and NAD+ at 37° C. in 20 mM HEPES buffer (pH 8.0) containing 150 mM NaCl, 1 mM MgCl2, and 2.7 mM KCl. The enzymatic reaction volume was 50 μL. When the enzymatic reaction was complete, the reaction was applied for absorption and fluorescence measurement. The parameter set for absorbance measurement was as follows: UV-visible light, collection region: 300-550 nm. The parameter set for fluorescence measurements was as follows: λex=480 nm, slit width: 5 nm, collection region: 510-600 nm.

[2] = biological target: T2, Sirt6 (Homo sapiens, UniProt Q8N6T7); experiment: Fluorimeter delipoylation assay of probe KTlip with Sirt6; conditions: Sirt6, 37° C., HEPES buffer pH 8.0
T2 construct: made in house
T2 sequence (Q8N6T7 whole entry, species assumed): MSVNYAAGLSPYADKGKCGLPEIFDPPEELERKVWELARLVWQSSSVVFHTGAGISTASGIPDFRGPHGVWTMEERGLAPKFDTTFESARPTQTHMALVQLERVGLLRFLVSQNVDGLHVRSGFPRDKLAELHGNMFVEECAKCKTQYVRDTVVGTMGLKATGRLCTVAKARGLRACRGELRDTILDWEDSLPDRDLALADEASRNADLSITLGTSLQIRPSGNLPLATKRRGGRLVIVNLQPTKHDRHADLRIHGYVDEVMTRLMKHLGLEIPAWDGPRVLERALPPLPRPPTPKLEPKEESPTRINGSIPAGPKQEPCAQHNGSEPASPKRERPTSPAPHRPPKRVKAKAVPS
Method: as §1, §2

[3] = biological target: T3, Sirt2 (Homo sapiens, UniProt Q8IXJ6); experiment: Fluorimeter delipoylation assay of probe KTlip with Sirt2
T3 construct: made in house
T3 sequence (Q8IXJ6 1-389): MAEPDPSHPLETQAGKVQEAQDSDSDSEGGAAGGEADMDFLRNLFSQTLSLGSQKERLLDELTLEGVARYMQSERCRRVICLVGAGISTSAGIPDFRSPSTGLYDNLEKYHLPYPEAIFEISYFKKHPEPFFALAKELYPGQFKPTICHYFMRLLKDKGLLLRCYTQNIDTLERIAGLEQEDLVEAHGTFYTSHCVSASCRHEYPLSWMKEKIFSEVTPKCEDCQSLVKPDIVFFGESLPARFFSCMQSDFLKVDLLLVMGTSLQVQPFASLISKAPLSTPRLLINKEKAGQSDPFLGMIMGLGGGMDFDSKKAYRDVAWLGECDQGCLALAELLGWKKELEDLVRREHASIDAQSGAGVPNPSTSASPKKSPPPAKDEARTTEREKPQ
Method: as §1, with “The Km value of KTlip obtained from the fluorescent method matched well with that from the traditional HPLC method, underscoring that probe KTlip can serve as a useful tool for detecting enzymatic delipoylation activity.” left out
as §2, with “The enzymatic reaction volume was 50 μL.” left out
The rate constant was calculated by fitting the fluorescence data to the following equation: Fluorescence intensity=1−exp(−kt) Enzymatic Reaction with Lipoylated Peptides.

[4] = biological target: T4, HDAC8 (Homo sapiens, UniProt Q9BY41); experiment: Fluorimeter and HPLC/MS delipoylation assay of probe KTlip with HDAC8
T4 sequence (Q9BY41 1-377): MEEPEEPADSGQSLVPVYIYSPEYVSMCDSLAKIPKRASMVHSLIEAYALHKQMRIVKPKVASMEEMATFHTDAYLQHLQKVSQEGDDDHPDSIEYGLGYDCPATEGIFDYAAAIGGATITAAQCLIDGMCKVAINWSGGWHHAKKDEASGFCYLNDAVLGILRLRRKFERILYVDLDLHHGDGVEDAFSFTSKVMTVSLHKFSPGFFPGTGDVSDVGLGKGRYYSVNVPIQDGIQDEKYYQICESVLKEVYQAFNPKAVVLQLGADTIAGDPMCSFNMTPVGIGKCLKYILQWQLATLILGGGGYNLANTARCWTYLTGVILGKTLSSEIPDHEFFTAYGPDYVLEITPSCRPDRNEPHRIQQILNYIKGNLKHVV
Method: as §1, §2

[5] = biological target: T5, Sirt5 (Homo sapiens, UniProt Q9NXA8); experiment: Fluorimeter delipoylation assay of probe KTlip with Sirt5; conditions: Sirt5, 37° C., HEPES buffer pH 8.0
T5 construct: made in house
T5 sequence (Q9NXA8 37-310): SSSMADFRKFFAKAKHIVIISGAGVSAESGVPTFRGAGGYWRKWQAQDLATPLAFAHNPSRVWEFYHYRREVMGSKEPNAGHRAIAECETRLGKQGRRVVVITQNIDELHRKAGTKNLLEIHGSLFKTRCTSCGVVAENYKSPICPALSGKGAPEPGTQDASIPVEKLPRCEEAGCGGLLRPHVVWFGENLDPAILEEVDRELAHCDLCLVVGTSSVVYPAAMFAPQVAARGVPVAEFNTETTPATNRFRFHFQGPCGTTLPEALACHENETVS
Method: as §1, §2

[6] = biological target: T6, Sirt1 (Homo sapiens, UniProt Q96EB6); experiment: Fluorimeter delipoylation assay of probe KTlip with Sirt1; conditions: Sirt1, 37° C., HEPES buffer pH 8.0
T6 construct: made in house
T6 sequence (Q96EB6 1-747): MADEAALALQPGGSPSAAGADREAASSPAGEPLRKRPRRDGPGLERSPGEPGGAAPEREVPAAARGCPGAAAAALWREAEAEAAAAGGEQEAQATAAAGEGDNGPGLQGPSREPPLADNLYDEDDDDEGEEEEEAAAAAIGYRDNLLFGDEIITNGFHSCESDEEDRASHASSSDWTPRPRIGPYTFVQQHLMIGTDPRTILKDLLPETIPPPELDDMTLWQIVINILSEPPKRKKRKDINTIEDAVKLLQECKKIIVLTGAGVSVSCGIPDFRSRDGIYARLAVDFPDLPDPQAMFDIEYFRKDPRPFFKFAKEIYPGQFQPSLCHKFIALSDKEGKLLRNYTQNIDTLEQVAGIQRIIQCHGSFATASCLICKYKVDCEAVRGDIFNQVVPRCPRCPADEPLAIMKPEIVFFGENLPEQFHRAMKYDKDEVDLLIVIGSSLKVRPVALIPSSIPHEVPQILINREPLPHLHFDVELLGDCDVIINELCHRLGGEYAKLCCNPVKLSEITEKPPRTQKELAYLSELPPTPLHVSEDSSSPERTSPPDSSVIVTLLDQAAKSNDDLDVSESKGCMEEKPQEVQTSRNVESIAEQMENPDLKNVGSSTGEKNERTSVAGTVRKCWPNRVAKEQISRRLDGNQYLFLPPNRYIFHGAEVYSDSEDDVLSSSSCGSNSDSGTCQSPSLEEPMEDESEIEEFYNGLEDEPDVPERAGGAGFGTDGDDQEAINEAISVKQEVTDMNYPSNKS
Method: as §1, §2

[7] = biological target: T3, Sirt2; experiment: Steady-state kinetic study of lipoylated peptides with Sirt2 (HPLC); conditions: relative to KAlip-1
Method: The delipoylation activity of HDAC8 was further examined using KAlip-5 and KAlip-1. […] A more detailed assessment of the enzymatic delipoylation reaction was performed. Time-dependent experiments and steady-state kinetics studies were conducted of KAlip-1, 5, 8, and 10 with Sirt2 (Table 1).
To determine the values of kcat, and Km, purified Sirt2 with 400 μM NAD+ was incubated with different concentrations of lipoylated peptide (0-120 μM) in 20 mM HEPES buffer (pH 8.0) containing 150 mM NaCl, 1 mM MgCl2, and 2.7 mM KCl at 37° C. for 10 min (KAlip-1 and KAlip-10) or 5 min (KAlip-5 and KAlip-8). The reactions were quenched by adding 250 μL of methanol and then applied for HPLC analysis with a linear gradient of 5% to 85% B (acetonitrile) for 30 min. The generated delipoylated product was quantified based on the peak area monitored at 280 nm. The kcat, and Km, values were calculated by curve-fitting Vinitiai/[E] versus [S]. The experiments were conducted in duplicate.

[8] = biological target: T3, Sirt2; experiment: HPLC delipoylation assay of lipoylated peptides with Sirt2; conditions: Sirt2 + NAD+, 37° C., monitored at 280 nm after 40 min
Method: A total of 11 lipoylated peptides (KAlip-1 to KAlip-11) were synthesised. The peptide sequences were selected from proteins that have been reported as being lipoylated (PDH, KDH, BCKDH, and GCV) and non-lipoylated proteins (e.g., histone). The peptides were synthesized with a standard Fmoc solid phase synthesis approach and characterized by LC-MS. The delipoylation activity was then determined by an HPLC assay. Compared with non-putative peptides, putative lipoylated peptides appeared to be more efficiently hydrolyzed by Sirt2. For example, the delipoylated product of KAlip-1 (derived from histone) after 40 min was determined to be 59%, which is less than that of putative lipoylated substrates such as KAlip-5 and KAlip-6 (derived from PDH).
The lipoylated peptides KAlip-1 to -11 were incubated with sirtuin and cofactor NAD+ at 37° C. in 20 mM HEPES buffer (pH 8.0) containing 150 mM NaCl, 1 mM MgCl2, and 2.7 mM KCl. The reaction volume was set to 50 μL. At each specific reaction time point, the reaction mixtures were quenched by adding 250 μL of methanol. The reactions were vortexed and centrifuged. Supernatant was collected and then analysed by reverse phase HPLC. The new peak generated was collected for ESI-MS or MALDI-TOF-MS analysis directly.

| Fluorescence increase ([3]; Sirt2, 37° C., HEPES buffer pH 8.0) [fold] | First-order rate constant of the reaction ([3]; Sirt2, fluorescence fit) [min⁻¹] | De-lipoylated product (HPLC and MS analysis) ([4]; HDAC8 enzymatic reaction conditions) | Fluorescence signal [6] | Catalytic efficiency of Sirt2 compared with nonputative H3K9 lipoyl peptide (KAlip-1) [7] | Delipoylation product (HPLC yield of delipoylated product) [8] [%] | Compound | Fluorescence increase [1] | Fluorescence increase [2] | Fluorescence increase ([4]; HDAC8, 37° C., HEPES buffer pH 8.0) | Fluorescence increase [5] |
| --- | --- | --- | --- | --- | --- | --- | --- | --- | --- | --- |
| 60 | 0.013 | No de-lipoylated product was observed | much lower fluorescence signal |  |  | CC(C)(C)OC(=O)N[C@@H](CCCCNC(=O)CCCCC1CCSS1)C(=O)NCCOCCOc1ccc([N+](=O)[O-])c2nonc12 (stereo partly shown) [KTlip] | did not show a noticeable fluorescence increase | did not show a noticeable fluorescence increase | did not show a noticeable fluorescence increase | did not show a noticeable fluorescence increase |
|  |  |  |  | slightly higher | 71 | ALESVK(lip)AASEWW [KAlip-10] |  |  |  |  |
